Values of other authors as cited in the CATMoS acute toxicity set (Mansouri et al. 2021).
Values joined by “and” are separate entries in the source; they are usually repeats but may differ in a detail not shown here. Identical values can stand only once.

Experiment: rat acute oral toxicity
Settings: in vivo
Excerpt: […]The data set underlying the modeling effort for this project was initially compiled by NICEATM and U.S. EPA’s CCTE. Briefly, LD50 data were collected from rat acute oral systemic toxicity tests, including limit tests, ranges/confidence intervals, and discrete LD50 values. The full data set included 21,200 LD50 entries for 15,688 substances. […] Data were reviewed to ensure that LD50 values with obvious errors in the extracted data such as unit conversion errors (e.g., comma and decimal separator misplacements) were either fixed or removed. After this review, 16,209 LD50 values remained. Many of the chemicals represented had multiple LD50 entries, requiring that a single representative value per Chemical Abstracts Service Registry Number (CASRN) identifier be defined to facilitate modeling efforts. Based on ATWG feedback and to define the representative LD50 as a protective value while accounting for the distribution across multiple LD50s, the median of the lowest quartile was computed using only discrete LD50 values (omitting limit test data and range and confidence interval data). A detailed summary of the data compilation is available online on the NICEATM webpage dedicated to the collaborative modeling project (NTP 2020).
[…][…] For categorical designations, limit test and range/confidence interval LD50 data were integrated wherever possible. As such, the number of chemicals with end point values/calls varies across the modeling end points (Table 3) based on whether chemicals had representative LD50 values and/or other data. If a chemical had both, the representative value was used to determine categorical calls rather than limit test data. Some data were useable only for certain end points and categories depending on the thresholds. For example, ranges that spanned multiple hazard categories were considered only for the binary (very toxic/nontoxic) end points and omitted from rendering a determination for hazard category assignment.
[…]The final data set comprising 11,992 chemicals was split into training and evaluation sets […], respectively. This process was performed semirandomly by ordering chemicals based on the five end points (categorical and continuous LD50 values) and partitioning every fourth record into the evaluation set accordingly. This approach was taken to ensure an equivalent distribution of the LD50 values and the different hazard categories between the training and the evaluation sets without supervised sampling of the chemicals based on structures (Figure 1A). The sources of the chemical structures were also kept equivalent between the two sets, with chemical structures obtained from DSSTox, being the highest quality, representing over 75% of each set (Figure 1B).

Compound | LD50
FCOC(C(F)(F)F)C(F)(F)F | 10800 mg/kg
CC(=O)C=C1CCC2C13CCC(C)C(C3)C2(C)C (stereo unspecified) | 5200 mg/kg
CCCCCCCCCCCC(=O)OCCSC#N | 500 mg/kg
CC(C)(C)CC(C)(C)SSSSCC(C)(CC(C)(C)C)SSSSC(C)(C)CC(C)(C)C (stereo unspecified) | 3640 mg/kg
CCN1C=CC(=C2C(=O)c3ccccc3C2=O)C=C1 | 330 mg/kg
CC(c1ccccc1)c1ccc(O)cc1O (stereo unspecified) | 500 mg/kg
Cc1c(Cl)cccc1Nc1ncccc1C(=O)O | 335 mg/kg
O=C1C(O)N=C(c2ccccc2F)c2cc(Cl)ccc2N1CCO (stereo unspecified) | 2550 mg/kg
OCCCc1ccccc1 | 2300 mg/kg
COc1cc(C(=O)NC2CCCNC2)cc(OC)c1OC (stereo unspecified) | 2100 mg/kg
COc1ccc2c(c1)c(CC(=O)OC/C=C(\C)CC/C=C(\C)CCC=C(C)C)c(C)n2C(=O)c1ccc(Cl)cc1 | 1680 mg/kg
C=CCN(C)N=O | 340 mg/kg
N#CSc1cccc(C(=O)O)c1 | 73 mg/kg
CCCCOP(=O)(OCCCC)Oc1ccc2c(C)c(Cl)c(=O)oc2c1 | 63 mg/kg
C=CC(C)NC(=S)NNC(=S)NC (stereo unspecified) | 1000 mg/kg
CCN(CC)CC#N | 160 mg/kg
CC(Cc1ccccc1)NCC1COc2ccccc2C1=O (stereo unspecified) | 500 mg/kg
C=C(C)C(=O)OC(=O)COC(C)C | 9000 mg/kg
COc1nc(C)nc(NC(=O)NS(=O)(=O)c2ccccc2Cl)n1 | 9370 mg/kg
CCC1NC(=O)c2ccccc2O1 (stereo unspecified) | 1310 mg/kg
CCCCN(CCCC)CCCC | 114 mg/kg
Cc1ncc(CO)c(CN)c1O | 7500 mg/kg
Cc1c(C(C)C)c(=O)n(-c2ccccc2)n1C | 860 mg/kg
C=CC(=O)NCO | 474 mg/kg
FC(F)(F)C(Cl)(Cl)C(Cl)(Cl)C(F)(F)F | 800 mg/kg

Compound | LD50
CO[SiH](OC)OC | 9330 mg/kg
Cc1ccc(C)c(O)c1 | 444 mg/kg
CCC1OC(C)SC1=NOC(=O)NC (stereo unspecified) | 15 mg/kg
Cc1ccccc1N1C(=O)C=CC1=O | 250 mg/kg
CN1CCN=C(c2ccccc2)c2cc(Cl)ccc21 | 900 mg/kg
O=C(COc1ccc(Cc2ccc(Cl)cc2)cc1)OCc1cccnc1 | 2700 mg/kg
Nc1ccc(-c2ccc(N)c(Cl)c2)cc1Cl | 3820 mg/kg
CCO[Si](CS)(OCC)OCC | 2550 mg/kg
CCC(CC)C(=O)NC(=Cc1ccc(OC)cc1)C(=O)O | 4000 mg/kg
CC(Oc1ccc(Oc2ccc(Cl)cc2Cl)cc1)C(=O)O (stereo unspecified) | 563 mg/kg
CCC1(C)CC(=O)NC1=O (stereo unspecified) | 1820 mg/kg
CCCCCCCCCCCCOC(=O)Cc1ccc(N(CCCl)CCCl)cc1 | 72 mg/kg
C=CCOCC(CC)(CO)CO | 4930 mg/kg
CCCCOCCOCCCC | 3250 mg/kg
CCCN(CCC)CCc1cccc2c1CC(=O)N2 | 396 mg/kg and 862 mg/kg
C=CCOc1ccc(C2=C(c3ccccc3)C(C)(C)Oc3cc(OC)ccc32)cc1 | 500 mg/kg
Clc1cncc(N2CCNCC2)n1 | 79.6 mg/kg
CC(C)=CC1C(C(=O)OCc2ccc(C)cc2C)C1(C)C (stereo unspecified) | 40000 mg/kg
N=C(S)NN=Nc1ccc(Cl)c(Cl)c1 | 1 mg/kg
CCn1c(=O)oc2ccc(Cl)cc21 | 1350 mg/kg
CC(C(=O)O)c1ccc2oc(-c3ccc(F)cc3)nc2c1 (stereo unspecified) | 521 mg/kg
Cc1ccc(S(=O)(=O)NN)cc1 | 283 mg/kg
CCN(CC)CCC1(c2ccccc2)C(=O)Oc2ccccc21 (stereo unspecified) | 600 mg/kg
CCN(C)N=O | 90 mg/kg
O=S1(=O)CCN(c2ccccc2)CC1 | 800 mg/kg

Compound | LD50
CCOP(=O)(OCC)SCC(C)(SCC)SCC | 15 mg/kg
CN(C)CCN(CCN(C)C)n1cc(-c2ccccc2)c2ccccc21 | 1250 mg/kg
COc1cc2nc(N3CCN(C(=O)OCC4CC4)CC3)nc(N)c2cc1OC | 1150 mg/kg
C/N=N/Nc1ccc(Cl)cc1 | 329 mg/kg
Cc1cccc(OC(C)C)c1N(C)C(=O)CCl | 950 mg/kg
O=C(Nc1cc(Cl)ccc1Cl)c1cc(Cl)cc(-c2ccccc2)c1O | 6310 mg/kg
CC1Cc2cc(C(=O)CCc3ccccc3)ccc2O1 (stereo unspecified) | 2150 mg/kg
C=CCN1CC[C@]23c4c5ccc(O)c4O[C@H]2[C@@H](O)C=C[C@H]3[C@H]1C5 | 1150 mg/kg
NC[C@@H]1O[C@H](O[C@H]2[C@@H](O)[C@H](O[C@@H]3[C@@H](O)[C@H](N)C[C@H](N)[C@H]3O[C@H]3O[C@H](CO)[C@@H](O)[C@H](O)[C@H]3N)O[C@@H]2CO)[C@H](N)[C@@H](O)[C@@H]1O | 21600 mg/kg
CCOC(=O)C=CC(=O)OCC | 3200 mg/kg
CCCCNS(=O)(=O)c1ccccc1 | 2050 mg/kg
COc1ccccc1OCC(O)COC(N)=O (stereo unspecified) | 1320 mg/kg
CC(C)(C)NCCC(O)c1cc(C(F)(F)F)nc2c(C(F)(F)F)cccc12 (stereo unspecified) | 2090 mg/kg
CC(C(=O)O)c1ccc2c(c1)C(=O)Cc1ccccc1O2 (stereo unspecified) | 106 mg/kg
CCOC(=S)C=Cc1ccc([N+](=O)[O-])cc1 | 970 mg/kg
Cc1cc(O)c(C)c(C)c1O | 3200 mg/kg
O=[N+]([O-])c1cccc2nc3ccccc3c(NCCN(CCO)CCO)c12 | 176 mg/kg
CCCCCOc1ccc(C2SC(=O)NC2=O)cc1OCC (stereo unspecified) | 4330 mg/kg
O=C(SCc1ccccc1)N1CCOCC1 | 50 mg/kg
Cl[Si](Cl)(Cl)c1ccccc1 | 2390 mg/kg
Cc1ncc(C[n+]2csc(CCO)c2C)c(N)n1 | 3710 mg/kg
CN(c1ccc(F)cc1F)c1c([N+](=O)[O-])cc([N+](=O)[O-])cc1C(F)(F)F | 250 mg/kg
COC(=O)C(=O)c1ccccc1 | 6800 mg/kg
CCC1NC(=O)C2C(Cl)C(Cl)CN2C(=O)C(CO)NC(=O)CC(c2ccccc2)NC(=O)C(CO)NC1=O (stereo unspecified) | 5 mg/kg
CNNC | 100 mg/kg and 257 mg/kg

Compound | LD50
Cc1ccc2sc(C)nc2c1 | 957 mg/kg
O=P1(NCCCl)OCCCN1CCCl (stereo unspecified) | 143 mg/kg
CCCC[N+](CCCC)(CCCC)CCCC | 1990 mg/kg
CCC(C)C(CC)C(N)=O (stereo unspecified) | 760 mg/kg
CCOC(C1=NCC(CC)(CC)CN1)c1ccccc1 (stereo unspecified) | 250 mg/kg
Cc1nc(N)sc1C(=O)Nc1ccccc1 | 1410 mg/kg
O=c1c2ccccc2n(-c2cccc(C(F)(F)F)c2)c(=O)n1CCO | 810 mg/kg
CNc1snc2ccccc12 | 400 mg/kg
CC1(C)CC1CC1C(=O)N(c2ccccc2)N(c2ccccc2)C1=O (stereo unspecified) | 800 mg/kg
CNC=O | 4000 mg/kg
Cc1cccc(C)c1N | 2040 mg/kg
Nc1c(CC(=O)O)cccc1C(=O)c1ccccc1 | 311 mg/kg
CC(CN(C)C)CN1c2ccccc2Sc2ccccc21 (stereo unspecified) | 210 mg/kg
CC(C)=CCC(=O)c1ccoc1 | 25 mg/kg
CCN(CCCCCCOC(=O)c1ccc(OC)c(OC)c1)C1CCc2cc(OC)ccc2C1 (stereo unspecified) | 2830 mg/kg
COP(=S)(OC)SCSCC=C(Cl)Cl | 85 mg/kg
CCN(CC)CCN1C(=O)NC(c2ccccc2)(c2ccccc2)C1=O | 1300 mg/kg
Cc1cn(-c2cc(N)cc(C(F)(F)F)c2)cn1 | 50 mg/kg
CCCCCOC(C[n+]1ccccc1)c1ccc(C2CCCC2)cc1 (stereo unspecified) | 250 mg/kg
CN(C)N=Nc1ccccc1 | 310 mg/kg
COC(=O)C1=C(C)NC(C)=C(C(=O)OC/C=C/c2ccccc2)C1c1cccc([N+](=O)[O-])c1 (stereo unspecified) | 2970 mg/kg
C[C@@H]1C[C@H]2[C@@H]3CCC4=CC(=O)C=C[C@]4(C)[C@@]3(F)[C@@H](O)C[C@]2(C)[C@@]1(O)C(=O)COC(=O)c1ccncc1 | 3560 mg/kg
O=C(OC1CC2NC(C1)C1OC21)C(CO)c1ccccc1 (stereo unspecified) | 3020 mg/kg
CCc1ccc(C(=O)c2ccccc2)c(C(=O)O)c1 | 4450 mg/kg
CCOC(=O)[C@H](CCc1ccccc1)N[C@@H](C)C(=O)N1Cc2cc(OC)c(OC)cc2C[C@H]1C(=O)O | 4020 mg/kg

Compound | LD50
CCOC(=O)C(SP(=O)(OC)SC)c1ccccc1 (stereo unspecified) | 250 mg/kg
CC(CCl)[N+](=O)[O-] (stereo unspecified) | 197 mg/kg
CCOC(C1=NCC(C)(C)CN1)c1cccc(F)c1 (stereo unspecified) | 750 mg/kg
CC(C(c1ccc(Cl)cc1)c1ccc(Cl)cc1)[N+](=O)[O-] (stereo unspecified) | 750 mg/kg
CCCCCCCCCCCCCCCCCCN(C(=O)CC(C(=O)O)S(=O)(=O)O)C(CC(=O)O)C(=O)O (stereo unspecified) | 6500 mg/kg
COc1cc(C(=O)c2ccc(Cl)cc2)cc(OC)c1OCCN1CCOCC1 | 1290 mg/kg
C/C=C(C)/C=C/C=C(C)C | 1900 mg/kg
CC1=COC(C)(C=O)CC1 (stereo unspecified) | 2460 mg/kg
O=C1C2C3C=C(C(O)(c4ccccc4)c4ccccn4)C(C3=C(c3ccccc3)c3ccccn3)C2C(=O)N1Cc1ccccn1 (stereo unspecified) | 5.2 mg/kg
O=C1CC(c2cccc(Br)c2)C(=O)N1 (stereo unspecified) | 1750 mg/kg
CCCCOC(C[n+]1ccccc1)c1ccccc1 (stereo unspecified) | 250 mg/kg
CCOP(=O)(OCC)SCn1nc(C)oc1=O | 1 mg/kg
CCN(CC)CCCNc1c2ccccc2nc2cccc([N+](=O)[O-])c12 | 63.2 mg/kg
CCCCOC(=O)c1c[n+](C)c2n(c1=O)C(C)CCC2 (stereo unspecified) | 1370 mg/kg
CCCCC(CC)C(=O)OCCOCCOCCOC(=O)C(CC)CCCC (stereo unspecified) | 31000 mg/kg
Cc1ccccc1C#N | 3200 mg/kg
OCC(CO)N[C@H]1C[C@](O)(CO)[C@@H](O)[C@H](O)[C@H]1O | 20000 mg/kg
Cc1c(Cl)c(Br)c(Br)c2[nH]c(C(F)(F)F)nc12 | 23 mg/kg
CCN(CC)CCNC(=O)c1cc(S(C)(=O)=O)ccc1OC | 4840 mg/kg
S=c1[nH]c2ccccc2s1 | 631 mg/kg
C=CC(=O)OCC(CC)(COC(=O)C=C)COC(=O)C=C | 5190 mg/kg
